Experimental data from the supplement of paper PMC11208160.

test: recombinant barcode read abundance after kanamycin selection (control-corrected) (log10(CPM+1)); higher = more efficient recombination; sequences stand for … in AGTGCAGAGAAAATCGGCCAGTTTTCTCTGCCTGCAGTCCGCATGCCGT…AGATTTATGCAGCGGACTGCCTTTCTCCCAAAGTGATAAACCGGACAGTATCATGGACCGGTTTTCCCGGTAATCCGTATTTGCAAGGTTGGTTTCACT; site = the 11-nt target
Summary of the method: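 Recombination efficiency comes from barcode counts at recombinant junctions, converted to counts per million, averaged and corrected against the control. Values appear as log10(CPM+1). They were obtained from a pooled E. coli screen in which each oligo paired a target with an IS621 bridge RNA target-binding loop, and cells were plated in duplicate on chloramphenicol/ampicillin LB agar or on chloramphenicol/ampicillin/kanamycin with 0.1 mM IPTG.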
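Further: IS621 recombinase and bridge RNA in Escherichia coli cells.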

Going from “TAGTCCTCTTGGGTTCTAACCTGTTGCTC (site TAGTCCTCTGA)” to “TAGTCCTCTTGGGTTCTAACCTGTTGCTC (site TAGTCCTCTTA)”, the “recombinant barcode read abundance (log10)” value falls from 0.935 to 0.118.

Compared with “TAGTGAACTTGGGTTCTAACCTGTTGCAC (site GCCGAGCCTTG)”, “TAGTGAACTTGGGTTCTAACCTGTTGCAC (site TAGTGAACTGT)” is higher in “recombinant barcode read abundance (log10)” value: 0.0124 for the first, 0.347 for the second.

Going from “TAGTGCTCTTGGGTTCTAACCTGTTGCCA (site TAGTGCTCTAG)” to “TAGTGCTCTTGGGTTCTAACCTGTTGCCA (site TAGTGCTCTCG)”, the “recombinant barcode read abundance (log10)” value falls from 0.444 to 0.0477.

First: TAGTGCTCTTGGGTTCTAACCTGTTGCCA (site TAGTGCTCTGG)
Second: TAGTGCTCTTGGGTTCTAACCTGTTGCCA (site TAGTGCTCTTG)
The “recombinant barcode read abundance (log10)” value of the first is lower: 0.00954 for the first, 1.16 for the second.

Compared with “TAGTGCTCTTGGGTTCTAACCTGTTGCCG (site TAGTGCTCTAG)”, “TAGTGCTCTTGGGTTCTAACCTGTTGCCG (site TAGTGCTCTCG)” is higher in “recombinant barcode read abundance (log10)” value: 0.595 for the first, 1.24 for the second.

Going from “TAGTGCTCTTGGGTTCTAACCTGTTGCCG (site TAGTGCTCTGG)” to “TAGTGCTCTTGGGTTCTAACCTGTTGCCG (site TAGTGCTCTTG)”, the “recombinant barcode read abundance (log10)” value rises from 0.0187 to 0.355.

Going from “TAGTGCTCTTGGGTTCTAACCTGTTGCTC (site TAGAGCTCTCA)” to “TAGTGCTCTTGGGTTCTAACCTGTTGCTC (site TAGTGCTCTGA)”, the “recombinant barcode read abundance (log10)” value rises from 0.185 to 1.07.

First: TAGTGGACTTGGGTTCTAACCTGTTGCCA (site TAGTGGACTTG)
Second: TAGTGGACTTGGGTTCTAACCTGTTGCCA (site TAGTGGCCTTG)
The “recombinant barcode read abundance (log10)” value of the first is higher: 0.466 for the first, 0.151 for the second.

“TAGTGTGCTTGGGTTCTAACCTGTTGCTT (site TAGTGTGCTAA)” and “TAGTGTGCTTGGGTTCTAACCTGTTGCTT (site TAGTGTGCTAC)” are within 0.2 log units of each other in “recombinant barcode read abundance (log10)” value: 0.31 for the first, 0.117 for the second.

First: TAGTTACCTTGGGTTCTAACCTGTTGCCG (site TACTTAGCTCG)
Second: TAGTTACCTTGGGTTCTAACCTGTTGCCG (site TAGTTACCTCG)
The “recombinant barcode read abundance (log10)” value of the first is lower: 0.00977 for the first, 0.612 for the second.

“TAGTTAGCTTGGGTTCTAACCTGTTGCCC (site TAGTTAGCTAG)” and “TAGTTAGCTTGGGTTCTAACCTGTTGCCC (site TAGTTAGCTCG)” are within 0.2 log units of each other in “recombinant barcode read abundance (log10)” value: 0.0394 for the first, 0.0413 for the second.

Going from “TAGTTAGCTTGGGTTCTAACCTGTTGCCC (site TAGTTAGCTGG)” to “TAGTTAGCTTGGGTTCTAACCTGTTGCCC (site TAGTTAGCTTG)”, the “recombinant barcode read abundance (log10)” value falls from 0.945 to 0.0262.

Going from “TAGTTGACTTGGGTTCTAACCTGTTGCCA (site TAGTTAACTTG)” to “TAGTTGACTTGGGTTCTAACCTGTTGCCA (site TAGTTCACTTG)”, the “recombinant barcode read abundance (log10)” value falls from 0.45 to 0.00742.

Compared with “TAGTTGACTTGGGTTCTAACCTGTTGCCA (site TAGTTGACTTG)”, “TAGTTGACTTGGGTTCTAACCTGTTGCCA (site TAGTTTACTTG)” is lower in “recombinant barcode read abundance (log10)” value: 0.986 for the first, 0.0255 for the second.

“TATAAGACTTGGGTTCTAACCTGTTGCAC (site TAGAAGACTAT)” and “TATAAGACTTGGGTTCTAACCTGTTGCAC (site TATAAGACTGT)” are within 0.2 log units of each other in “recombinant barcode read abundance (log10)” value: 0.587 for the first, 0.755 for the second.

Going from “TATAATACTTGGGTTCTAACCTGTTGCGA (site TATAATACTTC)” to “TATAATACTTGGGTTCTAACCTGTTGCGA (site TATACTACTTA)”, the “recombinant barcode read abundance (log10)” value falls from 0.32 to 0.0449.

“TATAATGCTTGGGTTCTAACCTGTTGCGT (site ATCGGACCTCA)” and “TATAATGCTTGGGTTCTAACCTGTTGCGT (site TATAATGCTAC)” are within 0.2 log units of each other in “recombinant barcode read abundance (log10)” value: 0.15 for the first, 0.335 for the second.

Compared with “TATACTACTTGGGTTCTAACCTGTTGCTA (site TATAATACTTC)”, “TATACTACTTGGGTTCTAACCTGTTGCTA (site TATACTACTTA)” is lower in “recombinant barcode read abundance (log10)” value: 0.511 for the first, 0.0716 for the second.

“TATAGCTCTTGGGTTCTAACCTGTTGCCT (site AATAGCTCTAG)” and “TATAGCTCTTGGGTTCTAACCTGTTGCCT (site CATAGCTCTAG)” are within 0.2 log units of each other in “recombinant barcode read abundance (log10)” value: 0.0791 for the first, 0.242 for the second.

Going from “TATAGCTCTTGGGTTCTAACCTGTTGCCT (site GATAGCTCTAG)” to “TATAGCTCTTGGGTTCTAACCTGTTGCCT (site TATAGCTCTAG)”, the “recombinant barcode read abundance (log10)” value rises from 0.106 to 0.479.

Going from “TATAGGGCTTGGGTTCTAACCTGTTGCCG (site GATAGGGCTCC)” to “TATAGGGCTTGGGTTCTAACCTGTTGCCG (site TATAGGGCTCG)”, the “recombinant barcode read abundance (log10)” value rises from 0 to 0.402.

“TATATATCTTGGGTTCTAACCTGTTGCAT (site AGGTGTCCTTC)” and “TATATATCTTGGGTTCTAACCTGTTGCAT (site TATATATCTAT)” are within 0.2 log units of each other in “recombinant barcode read abundance (log10)” value: 0.112 for the first, 0.23 for the second.

First: TATCAGACTTGGGTTCTAACCTGTTGCAG (site TATCAGACTCT)
Second: TATCAGACTTGGGTTCTAACCTGTTGCAG (site TCTCAGGCTCT)
The “recombinant barcode read abundance (log10)” value of the first is higher: 1.45 for the first, 0.121 for the second.

“TATCAGCCTTGGGTTCTAACCTGTTGCTT (site CATCAGCCTAC)” and “TATCAGCCTTGGGTTCTAACCTGTTGCTT (site TATCAGCCTAA)” are within 0.2 log units of each other in “recombinant barcode read abundance (log10)” value: 0.0522 for the first, 0.0238 for the second.

First: TATCCCTCTTGGGTTCTAACCTGTTGCCT (site ATCAAGCCTCT)
Second: TATCCCTCTTGGGTTCTAACCTGTTGCCT (site TATCCCTCTAG)
The “recombinant barcode read abundance (log10)” value of the first is lower: 0.18 for the first, 1.14 for the second.

First: TATCCGACTTGGGTTCTAACCTGTTGCCA (site TATCCGACTAG)
Second: TATCCGACTTGGGTTCTAACCTGTTGCCA (site TATCCGACTCG)
The “recombinant barcode read abundance (log10)” value of the first is higher: 0.56 for the first, 0.142 for the second.

“TATCCGACTTGGGTTCTAACCTGTTGCCA (site TATCCGACTGG)” and “TATCCGACTTGGGTTCTAACCTGTTGCCA (site TATCCGACTTG)” are within 0.2 log units of each other in “recombinant barcode read abundance (log10)” value: 0.0584 for the first, 0.135 for the second.

Compared with “TATGGAGCTTGGGTTCTAACCTGTTGCTG (site AATGGGGCTCA)”, “TATGGAGCTTGGGTTCTAACCTGTTGCTG (site TATGGAGCTCA)” is higher in “recombinant barcode read abundance (log10)” value: 0.523 for the first, 1.58 for the second.

Compared with “TATGGGACTTGGGTTCTAACCTGTTGCCT (site TATCGCACTAG)”, “TATGGGACTTGGGTTCTAACCTGTTGCCT (site TATGGGACTAG)” is higher in “recombinant barcode read abundance (log10)” value: 0.0772 for the first, 1.25 for the second.

For “TATGGTACTTGGGTTCTAACCTGTTGCGT (site GGGATACCTTA)”, the “recombinant barcode read abundance (log10)” value was 0.0757.
